As usually defined, the EC50 is the concentration at which the effect is half-maximal. What is called IC50 is the concentration that inhibits the measured activity by half. The term inhibition denotes the drop in the measured response relative to a control, in per cent.

Data on 9 compounds can be found in US20110263046A1, “Methods of identification of novel ligands for modulation of orphan nuclear receptor RAR-related orphan receptor-gamma (NR1F3) activity” (PHENEX PHARMACEUTICALS AG, priority 2008, published 2011).

“Also recorded” adds a separate entry of the source.

Test [1] has as its target T1, RORgamma ligand binding domain (Homo sapiens, UniProt P51449).
T1 sequence (P51449 267-518): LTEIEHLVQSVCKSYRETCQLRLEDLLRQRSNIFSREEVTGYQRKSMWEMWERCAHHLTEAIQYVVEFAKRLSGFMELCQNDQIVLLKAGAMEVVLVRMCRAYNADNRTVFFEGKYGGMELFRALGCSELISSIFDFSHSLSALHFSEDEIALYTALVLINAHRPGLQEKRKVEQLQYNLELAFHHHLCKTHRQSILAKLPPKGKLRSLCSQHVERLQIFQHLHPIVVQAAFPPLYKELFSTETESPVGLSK
The test is described as follows: TR-FRET ligand sensing assay: RORγ-LBD / coactivator peptide interaction. In kind it is biochemical. Set-up: made in house; host or cells: E. coli BL21(DE3). The settings on record: for IC50: antagonistic. As for the experimental part: As described in more detail in the examples, a GST-RORgamma-LBD fusion protein is expressed and purified from E. coli. The TR-FRET assays were performed in a final volume of 25 μl in individual wells of a 384 well plate using a Tris-based buffer system: 10-50 mM Tris-HCl pH 7.9; 50-100 mM KCl, 1-10 mM MgCl2; 20-100 ng/μl BSA), containing 20-60 ng/well recombinantly expressed RORγ-LBD fused to GST, 200-600 nM N-terminally biotinylated peptide (e.g. derived from SRC-1 or TIF-2), 50-500 ng/well Streptavidin-xIAPC conjugate (Prozyme) and 2-20 ng/well Eu W1024-antiGST (Perkin Elmer).
The human RORg ligand binding domain (LBD) was expressed in E. coli strain BL21(DE3) as an N-terminal glutathione-S-transferase (GST) tagged fusion protein. The DNA encoding the RORg ligand binding domain was cloned into vector pDEST15 (Invitrogen). […] Expression in pDEST15 is controlled by a IPTG inducible T7 promoter and cloning and transformation of E. coli was done essentially according to standard protocols known to persons skilled in the art and supplied by Invitrogen.
Determination of the interaction of a ligand with the human RORgamma ligand binding domain was done by using a Ligand Sensing Assay based on Time-resolved Fluorescence Energy Transfer (TR-FRET).
This method measures the ability of putative ligands to modulate the interaction between the purified bacterial expressed RORg ligand binding domain (LBD) and synthetic N-terminally biotinylated peptides which are derived from nuclear receptor coactivator proteins such as but not limited to SRC1 (NcoA1), SRC2 (NcoA2,TIF2), SRC3 (NcoA3), PGC1α, PGC1β, CBP, GRIP1, TRAP220, RIP140.
(§1) The ligand binding domain (LBD) of RORγ was expressed as fusion protein with GST in […] cells using the vector pDEST15. Cells were lysed by lysozyme-treatment and sonication, and the fusion proteins purified over glutathione sepharose (Pharmacia) according to the manufacturers instructions. For screening of compounds for their influence on the RORγ-peptide interaction, the LANCE technology (Perkin Elmer) was applied. This method relies on the binding dependent energy transfer from a donor to an acceptor fluorophor attached to the binding partner of interest. For ease of handling and reduction of background from compound fluorescence LANCE technology makes use of generic fluorophore labels and time resolved detection assays were done in a final volume of 25 μl in a 384 well plate, in a Tris-based buffer (20 mM Tris-HCl pH 7.9; 60 mM KCl, 5 mM MgCl2; 35 ng/μl BSA), containing 20-60 ng/well recombinantly expressed RORγ-LBD fused to GST, 200-600 nM N-terminally biotinylated peptide, 200 ng/well Streptavidin-xIAPC conjugate (Prozyme) and 6-10 ng/well Eu W1024-antiGST (Perkin Elmer). DMSO content of the samples was kept at 1%. After generation of the assay mix the potentially RORγ modulating ligands were diluted. After his step, the assay was equilibrated for one hour in the dark at room temperature in FIA-plates black 384 well (Greiner). The LANCE signal was detected by a Perkin Elmer VICTOR2V™ Multilabel Counter. […] Ligands that promote the complex formation induce a concentration-dependent increase in time-resolved fluorescent signal.
Equation: Sigmoidal dose-response (variable slope) Y=Bottom+(Top-Bottom)/(1+10̂((LogEC50-X)*HillSlope))
This is identical to the “four parameter logistic equation”. The EC50 or IC50 values are calculated using this equation.
For orientation: Time-resolved FRET reads energy transfer from a long-lived donor to a nearby acceptor.

Test [2] has as its target T1, RORgamma ligand binding domain. The test is described as follows: TR-FRET assay variation: agonist titration on top of saturating antagonist (4 μM LE540). The class given is biochemical. Set-up: made in house; host or cells: E. coli BL21(DE3).
Text: as §1
In a variation of the assay described above, an antagonistic compound was added in a saturating concentration (4 μM) to the assay mix. Then the agonistic compounds were diluted and the assay was equilibrated for one hour in the dark.

For test [3], the system named is IL-17 production by peripheral blood human mononuclear cells (PBMCs). In words: PBMC stimulation and IL-17 secretion assay (ELISA). In kind it is cell-based. The settings on record: 72 h; for mean concentration of IL-17: anti-CD3/anti-CD28 stimulated PBMCs. As for the experimental part: Cryopreserved peripheral blood human mononuclear cells (PBMCs) were used for the experiments. The cells were thawed in CTL-Anti-Aggregate-Wash™ solution and washed once in CTL Wash™ medium with benzonase. PBMCs, suspended in CTL serum-free test media (CTL-Test™ Medium), were plated into 96-well BD BioCoat Anti-Human CD3 T-Cell activation plate at a total of 1×10^5 cells/well in triplicate. The cells were incubated with anti-CD28 (2 μg/ml) in the absence or presence of LE540, LE135 and Am580 at different concentrations for 72 h at 37° C. with 5% CO2. The compounds were added at the time 0. The supernatants were harvested and assayed for IL-17 according to the protocol from the corresponding ELISA kit (Invitrogen). The detection range was 15.6-1,000.0 pg/ml. Data are presented as means±s.d. values.
In the control experiments PBMCs were stimulated with anti-CD3 (plate) and anti-CD28 in the presence of 0.1% DMSO. The mean concentration of IL-17 was 1,003.36±45.18 pg/ml. In contrast, the concentration of IL-17 in non stimulated cells was under the detection range (<15.6 pg/ml). […] The compounds were added to the cells at time 0 together with the anti-CD28 mAb. […] The lower concentration of LE540 (0.1 μM) was also very potent in PBMCs. […] The amount of IL-17 protein was down regulated after treatment of cells with 3, 1, and 0.3 μM of LE135 (FIG. 3).

Test [4] has as its target T1, RORgamma ligand binding domain. In words: Radioligand displacement assay (3H-25-hydroxycholesterol). Further details: made in house; host or cells: E. coli BL21 (DE3). The settings on record: FIG. 1; for apparent potency and efficacy of displacement: comparison among ligands; for displacement of 3H-25-hydroxycholesterol bound to RORgamma-LBD: dose dependent, radioligand at saturating concentration (500 nM). An excerpt:
This method measures the ability of putative ligands to displace a radioactively labeled compound that is bound to the RORgamma ligand binding domain.
The ligand binding domain (LBD) of RORγ was expressed as fusion protein with GST in BL-21 cells using the vector pDEST15. Cells were lysed by lysozyme-treatment and sonication, and the fusion proteins purified over glutathione sepharose (Pharmacia) according to the manufacturers instructions. For screening of compounds for their ability to bind to RORγ, commercially available 25-26,27-[…]-hydroxycholesterol
(Perkin Elmer, NET674250UC) was bound to the protein and displacement by non radioactive ligands was observed. The assay was done in a final volume of 100 μl in a 96-well glutathione and scintillant coated microplate (Perkin Elmer, SMP109001PK). […] Compounds to be tested were titrated and added to the protein-radioligand mix. DMSO content of the samples was kept at 1%. After addition of the compounds, the assay was equilibrated for 30 min at room temperature. After this incubation the assay plate wells were washed twice with Tris buffer (20 mM Tris-HCl pH 7.5; 60 mM KCl, 5 mM MgCl2) and subsequently measured for 500 sec per well in a LUMIstar OPTIMA (BMG).
A general note: Displacement assays read how much labelled ligand stays bound in the presence of the test substance.

Setting [5] is: agonistic, peptide TIF2(628-658), read-out: EC50.
[6] abbreviates: agonistic, assay includes 4 μM LE540, peptide TIF2(628-658), read-out: apparent EC50.
[7] abbreviates: Homo sapiens, PBMC, 0.3 μM compound, stimulated PBMCs, read-out: percentage of IL-17 inhibition.

In the case of `COC(=O)CC[C@@H](C)[C@H]1CC[C@H]2[C@@H]3CC=C4C[C@@H](O)CC[C@]4(C)[C@H]3CC[C@]12C` [Cholenic Acid Methyl Ester], the EC50 in test [1] (agonistic, peptide TIF2(628-658), listed as cholenic acid methyl ester, read-out: EC50) is 0.0277 µM; in test [1] (setting [5]), 0.0275 µM; in test [2] (setting [6]), 0.311 µM.
Regarding Am580, the “level of IL-17” value is on record as “within the control range” in test [3] (1 μM compound, stimulated PBMCs) and “within the control range” in test [3] (5 μM compound, stimulated PBMCs). The “percentage of IL-17 inhibition” value in test [3] (10 μM compound, stimulated PBMCs) was found to be 69.73%. For the same compound, the “production of IL-17 by human PBMCs (qualitative)” value (from here on “production”) in test [3] (stimulated PBMCs) is “inhibit the production of IL-17”. The IC50 in test [1] (peptide SRC1(676-700)) was 23.4 µM; in test [1] (peptide TIF2(628-658)), 19.8 µM.
With `CC(C)CC[C@@H](O)[C@@H](C)[C@H]1CC[C@H]2[C@@H]3CC=C4C[C@@H](O)CC[C@]4(C)[C@H]3CC[C@]12C` [22R-Hydroxycholesterol], the results for the EC50 in test [1] and in test [2] were 0.0165 µM and 0.154 µM, respectively.
In the case of `C[C@H](CCC(=O)N(C)C)[C@H]1CC[C@H]2[C@@H]3CC=C4C[C@@H](O)CC[C@]4(C)[C@H]3CC[C@]12C` [DMHCA], the EC50 came out at 0.0107 µM in test [1] (setting [5]) and 0.085 µM in test [2] (setting [6]).
Consider `CC(C)(C)c1cc(C(=O)C=Cc2ccc(C(=O)O)cc2)cc(C(C)(C)C)c1` [Ch55], for which the IC50 came to 12.2 µM in test [1] (peptide SRC1(676-700)) and 11.3 µM in test [1] (peptide TIF2(628-658)). In addition, in test [4], the “apparent potency and efficacy of displacement” value (shortened to “apparent potency and efficacy”) was “lowest potency and efficacy”. The results for the “displacement of 3H-25-hydroxycholesterol bound to RORgamma-LBD” value in test [4] and in test [4] (listed as CH55) were “able to displace” and “dose-dependent competitive displacement”, respectively.
For the compound `CN1c2cc3c(cc2N=C(c2ccc(C(=O)O)cc2)c2ccccc21)C(C)(C)CCC3(C)C` [LE135], the inhibition at 0.3 µM in test [3] (setting [7]) was 35.8%. In addition, the inhibition at 1 µM in test [3] (Homo sapiens, PBMC, 1 μM compound, stimulated PBMCs, read-out: percentage of IL-17 inhibition) was 61.9%. Also, the inhibition at 3 µM in test [3] (Homo sapiens, PBMC, 3 μM compound, stimulated PBMCs, read-out: percentage of IL-17 inhibition) was 75.9%. For the same compound, in test [3] (stimulated PBMCs), the “production” value was “inhibit the production of IL-17”. The IC50 worked out at 19.3 µM in test [1] (peptide SRC1(676-700)) and 13.2 µM in test [1] (peptide TIF2(628-658)).
Turning to `CN1c2cc3c(cc2N=C(c2ccc(C(=O)O)cc2)c2ccc4ccccc4c21)C(C)(C)CCC3(C)C` [LE540], the results for the “mean concentration of IL-17” value in test [3] (0.1 μM compound) and in test [3] (0.3 μM compound) were 659.39 pg/mL and 289.69 pg/mL, respectively. Besides, the inhibition at 0.1 µM in test [3] (Homo sapiens, PBMC, 0.1 μM compound, stimulated PBMCs, read-out: percentage of IL-17 inhibition) is 34.3%. In addition, the inhibition at 0.3 µM in test [3] (setting [7]) is 71.1%. Besides, the “production” value in test [3] (stimulated PBMCs) is listed as “inhibit the production of IL-17”. Also, the results for the IC50 in test [1] (peptide SRC1(676-700)) and in test [1] (peptide TIF2(628-658)) were 3.6 µM and 4.9 µM, respectively. For the same compound, the “apparent potency and efficacy” value in test [4] is on record as “highest”. Moreover, the “displacement of 3H-25-hydroxycholesterol bound to RORgamma-LBD” value in test [4] is “able to displace; also recorded: dose-dependent competitive displacement”.
With `C/C(=C\c1ccc(C(=O)O)cc1)c1ccc2c(c1)C(C)(C)CCC2(C)C` [TTNPB], the results for the IC50 in test [1] (peptide SRC1(676-700)) and in test [1] (peptide TIF2(628-658)) were 8.6 µM and 8.2 µM, respectively. Further, the “apparent potency and efficacy” value in test [4] is reported as “less potent but seems rather efficient”. The “displacement of 3H-25-hydroxycholesterol bound to RORgamma-LBD” value in test [4] is “dose-dependent competitive displacement”; in test [4] (listed as TTNBP), “able to displace”.
For `C[C@@H](CO)CCC[C@@H](C)[C@H]1CC[C@H]2[C@@H]3CC=C4C[C@@H](O)CC[C@]4(C)[C@H]3CC[C@]12C` [(25R)-26-Hydroxycholesterol], the EC50 came out at 0.0141 µM in test [1] (setting [5]) and 0.146 µM in test [2] (setting [6]).
